Test results published in US12398107B2, “Fungicidal nitroanilino substituted pyrazoles” (FMC Corporation, priority 2018, dated 2025).

Legend:
Assay type in all cases: in vivo
[1] = system: Puccinia recondita f. sp. tritici; experiment: Test B: wheat leaf rust, preventive spray on wheat seedlings; conditions: 100 = 100% disease control, 0 = no control relative to controls; for Test B disease control rating (wheat leaf rust) / pest or weed control at 50 ppm: 50 ppm
How it was run: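 Compounds in acetone/water (50/50) with 250 ppm PEG400, sprayed to run-off on wheat seedlings at stated ppm; inoculated next day with P. recondita spores. Held 24 h saturated at 20° C., then 7 days in growth chamber at 20° C.; rating 0–100 = % disease control vs controls.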

Phakopsora pachyrhizi = experiment: Test D: Asian soybean rust, preventive spray on soybean seedlings; conditions: 100 = 100% disease control, 0 = no control; for Test D disease control rating (Asian soybean rust) / pest or weed control at 50 ppm: 50 ppm
How it was run: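 Soybean seedlings sprayed to run-off with compound suspension (ppm, in 50/50 acetone/water with 250 ppm PEG400), inoculated next day with P. pachyrhizi spores, held 24 h saturated at 22°C then 8 days at 22°C. Visual rating 0-100% disease control relative to controls.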

Alternaria solani = experiment: Test F: tomato early blight, preventive spray on tomato seedlings; conditions: 100 = 100% disease control, 0 = no control; for Test F disease control rating (tomato early blight) / pest or weed control at 50 ppm: 50 ppm
How it was run: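 Compounds in acetone/water (50/50) with 250 ppm PEG400, dosed in ppm, sprayed to run-off on tomato seedlings; next day inoculated with A. solani spores. Held 48 h saturated at 27° C, then 3 days at 20° C; visual rating 0–100% disease control relative to controls.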

Botrytis cinerea = experiment: Test E: tomato Botrytis, preventive spray on tomato seedlings; conditions: 100 = 100% disease control, 0 = no control; for Test E disease control rating (tomato Botrytis) / pest or weed control at 50 ppm: 50 ppm
How it was run: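 Tomato seedlings sprayed to run-off with compound (ppm) in acetone/water with 250 ppm PEG400, then inoculated next day with B. cinerea spores. Held 48 h at 20 °C in saturated atmosphere, then 3 days at 24 °C. Visual rating 0–100% disease control relative to untreated controls.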

Septoria tritici = experiment: Test A: wheat leaf blotch, preventive spray on wheat seedlings; conditions: 100 = 100% disease control, 0 = no control relative to controls; for Test A disease control rating (wheat leaf blotch) / pest or weed control at 50 ppm: 50 ppm
How it was run: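 Compounds were suspended in acetone/water (50/50) with 250 ppm PEG400 and sprayed to run-off on wheat seedlings. The next day the seedlings were inoculated with Septoria tritici spores, held 48 h at 24 °C in saturated humidity, then 17 days at 20 °C. Disease control was rated 0–100 relative to controls.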

[2] = system: Blumeria graminis f. sp. tritici; experiment: Test C: wheat powdery mildew, preventive spray on wheat seedlings; conditions: rated after 8 days, 100 = 100% disease control, 0 = no control; for Test C disease control rating (wheat powdery mildew) / pest or weed control at 50 ppm: 50 ppm
How it was run: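 Compound dissolved in acetone (3% of final volume), then suspended in 50/50 acetone/water with 250 ppm PEG400 and sprayed to run-off on wheat seedlings. Inoculated next day with B. graminis f. sp. tritici spore dust, kept 8 days at 20° C; visual rating, 100 = full control, 0 = none, relative to controls.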

[3] = read-out: Test B disease control rating (wheat leaf rust)
[4] = Phakopsora pachyrhizi, read-out: Test D disease control rating (Asian soybean rust)
[5] = Alternaria solani, read-out: Test F disease control rating (tomato early blight)
[6] = Botrytis cinerea, read-out: Test E disease control rating (tomato Botrytis)
[7] = Zymoseptoria tritici, read-out: Test A disease control rating (wheat leaf blotch)
[8] = Blumeria graminis, 192 h, read-out: Test C disease control rating (wheat powdery mildew)

Structure (SMILES)	Test B disease control rating (wheat leaf rust) [1]	Test D disease control rating (Asian soybean rust) (Phakopsora pachyrhizi)	Test F disease control rating (tomato early blight) (Alternaria solani)	Test E disease control rating (tomato Botrytis) (Botrytis cinerea)	Test A disease control rating (wheat leaf blotch) (Septoria tritici)	Test C disease control rating (wheat powdery mildew) [2]	pest or weed control at 50 ppm [1, 3]	pest or weed control at 50 ppm (Phakopsora pachyrhizi; [4])	pest or weed control at 50 ppm (Alternaria solani; [5])	pest or weed control at 50 ppm (Botrytis cinerea; [6])	pest or weed control at 50 ppm (Septoria tritici; [7])	pest or weed control at 50 ppm [2, 8]	pest or weed control at 10 ppm ([1]; 10 ppm, read-out: Test B disease control rating (wheat leaf rust))	pest or weed control at 10 ppm (Phakopsora pachyrhizi; Phakopsora pachyrhizi, 10 ppm, read-out: Test D disease control rating (Asian soybean rust))	pest or weed control at 10 ppm (Alternaria solani; Alternaria solani, 10 ppm, read-out: Test F disease control rating (tomato early blight))	pest or weed control at 10 ppm (Botrytis cinerea; Botrytis cinerea, 10 ppm, read-out: Test E disease control rating (tomato Botrytis))	pest or weed control at 10 ppm (Septoria tritici; Zymoseptoria tritici, 10 ppm, read-out: Test A disease control rating (wheat leaf blotch))	pest or weed control at 10 ppm ([2]; Blumeria graminis, 192 h, 10 ppm, read-out: Test C disease control rating (wheat powdery mildew))
CCc1nn(C)c(Nc2ccc(OC)cc2[N+](=O)[O-])c1-c1ccc(F)cc1F [Compound 45]	86%	0%	33%	99%	100%	95%												
CCc1nn(C)c(Nc2c(F)cccc2[N+](=O)[O-])c1-c1ccc(F)cc1F [Compound 46]	98%	0%	81%	99%	100%	99%												
Cc1nn(C)c(Nc2c(F)cc(I)cc2[N+](=O)[O-])c1-c1ccc(F)cc1Cl [Compound 47]	97%	92%	96%	95%	100%	89%												
COc1ccc(-c2c(C)nn(C)c2Nc2c(F)cccc2[N+](=O)[O-])c(C)c1 [Compound 48]	95%	0%	97%	97%	100%	89%												
Cc1nn(C)c(Nc2c(Cl)cc(F)cc2[N+](=O)[O-])c1-c1c(F)cccc1Cl [Compound 49]	100%	25%	26%	94%	100%	95%												
CCc1nn(C)c(Nc2c(F)cc(F)cc2[N+](=O)[O-])c1-c1ccc(F)cc1F [Compound 50]	98%	0%	98%	92%	100%	100%												
Cc1nn(C)c(Nc2c(F)cc(F)cc2[N+](=O)[O-])c1-c1ccc(F)cc1Br [Compound 51]	100%	79%	99%	98%	100%	100%												
COc1ccc(Nc2c(-c3ccc(F)cc3Br)c(C)nn2C)c([N+](=O)[O-])c1 [Compound 52]	100%	59%	94%	99%	100%	90%												
Cc1nn(C)c(Nc2c(F)cccc2[N+](=O)[O-])c1-c1c(Cl)cccc1Cl [Compound 53]	100%	0%	98%	98%	100%	98%												
Cc1nn(C)c(Nc2ccc(F)cc2[N+](=O)[O-])c1-c1c(Cl)cccc1Cl [Compound 54]	91%	0%	0%	21%	100%	93%												
Cc1nn(C)c(Nc2c(Cl)cc(Br)cc2[N+](=O)[O-])c1-c1ccc(F)cc1F [Compound 55]	99%	0%	0%	34%	100%	90%												
Cc1nn(C)c(Nc2c(F)cc(Br)cc2[N+](=O)[O-])c1-c1ccc(F)cc1F [Compound 56]	100%	65%	99%	99%	100%	100%												
COc1cc(F)c(Nc2c(-c3ccc(F)cc3F)c(C)nn2C)c([N+](=O)[O-])c1 [Compound 57, 4-(2,4-difluorophenyl)-N-(2-fluoro-4-methoxy-6-nitrophenyl)-1,3-dimethyl-1H-pyrazol-5-amine]							100%	96%	100%	100%	100%	100%						
Cc1nn(C)c(Nc2c(F)cc(F)cc2[N+](=O)[O-])c1-c1ccc(F)cc1F [Compound 58]	100%	36%	99%	99%	100%	99%												
Cc1nn(C)c(Nc2c(Cl)cc(Cl)cc2[N+](=O)[O-])c1-c1ccc(F)cc1Cl [Compound 59]	100%	96%	92%	99%	100%	99%												
Cc1nn(C)c(Nc2c(F)cccc2[N+](=O)[O-])c1-c1ccc(F)cc1Br [Compound 60, 4-(2-bromo-4-fluorophenyl)-N-(2-fluoro-6-nitrophenyl)-1,3-dimethyl-1H-pyrazol-5-amine]							100%	97%	99%	99%	100%	100%	100%	0%	75%	99%	99%	85%
Cc1nn(C)c(Nc2c(F)cc(Br)cc2[N+](=O)[O-])c1-c1ccc(F)cc1Cl [Compound 61, N-(4-bromo-2-fluoro-6-nitrophenyl)-4-(2-chloro-4-fluorophenyl)-1,3-dimethyl-1H-pyrazol-5-amine]							100%	84%	99%	99%	100%	99%						
Cc1nn(C)c(Nc2c(F)cccc2[N+](=O)[O-])c1-c1c(F)cc(F)cc1F [Compound 62]	100%	100%	99%	99%	100%	100%												
